Several values for one entry are separate records, joined by “and”; a condition that tells them apart may be missing. Equal entries are not always repeated.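 Method: 48-hour compound exposure of cells in 96-well plates, five concentrations, linear interpolation of endpoints. Abbreviation: GI50, concentration required for 50% inhibition of growth. TGI is the concentration that stops growth completely.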
Tests used:
Assay in all cases: NCI-60 cell line screen, 48 h
[1] = test system: SF-268 CNS
[2] = test system: RXF 393 renal
[3] = test system: SF-539 CNS
[4] = test system: KM12 colon
[5] = test system: SR leukemia
[6] = test system: CAKI-1 renal
[7] = test system: HOP-92 NSCLC
[8] = test system: NCI-H460 lung
[9] = test system: M14 melanoma
[10] = test system: PC-3 prostate

In the case of `N#CCc1ccc(C(C#N)/C(CCCC(=O)Nc2cccc([N+](=O)[O-])c2)=N\NC(=O)NN)cc1` (stereo not given), the TGI [1] is reported as greater than 100 µM, the TGI [2] is reported as greater than 100 µM and the TGI [3] is reported as greater than 100 µM. The TGI [4] was greater than 100 µM, the TGI [5] was greater than 100 µM and the TGI [6] was greater than 100 µM. The TGI [7] was greater than 100 µM, the TGI [8] was greater than 100 µM and the TGI [9] was greater than 100 µM.
`C=C1CC[C@@]2(C#N)[C@H]3[C@H](CC[C@@H]2C)[C@@H](C)C[C@@H](CC(C)(C)C#N)[C@H]13` gave a GI50 [1] of 2.34 µM, a TGI [1] of 35.3 µM and a GI50 [2] of 5.85 µM. For the same molecule, the TGI [2] was 22.8 µM, the GI50 [10] was 0.283 µM and the TGI [10] was 30.5 µM. For the same molecule, the GI50 [3] was 0.609 µM, the TGI [3] was 17.5 µM and the GI50 [4] was 0.471 µM. It also gave a TGI [4] of 18.9 µM, a GI50 [5] of 1.57 µM and a TGI [5] of 40.3 µM. The GI50 [6] was 1.73 µM, the TGI [6] was greater than 100 µM and the GI50 [7] was 0.2 µM. It also gave a TGI [7] of 0.68 µM, a GI50 [8] of 0.877 µM and a TGI [8] of 12.8 µM. It also gave a GI50 [9] of 1.48 µM and a TGI [9] of 12.5 µM.
`CCCCCNC(=O)[C@@H]1CCCN2C(=O)CC[C@H](NC(=O)[C@H](Cc3ccc(OP(=O)(O)O)cc3)NC(C)=O)C(=O)N12` gave a GI50 [1] greater than 25 µM, a TGI [1] greater than 25 µM and a GI50 [2] greater than 25 µM. The TGI [2] was greater than 25 µM, the GI50 [10] was greater than 25 µM and the TGI [10] was greater than 25 µM. It also gave a GI50 [3] greater than 25 µM, a TGI [3] greater than 25 µM and a GI50 [4] greater than 25 µM. For the same molecule, the TGI [4] was greater than 25 µM, the GI50 [5] was greater than 25 µM and the TGI [5] was greater than 25 µM. The GI50 [6] was greater than 25 µM, the TGI [6] was greater than 25 µM and the GI50 [8] was greater than 25 µM. The TGI [8] was greater than 25 µM, the GI50 [9] was greater than 25 µM and the TGI [9] was greater than 25 µM.
`CCN(CC)CCOc1ccc(Nc2ncc3cc(-c4ccc(O)cc4)c(=O)n(C)c3n2)cc1` gave a GI50 [1] of 1.19 µM, a TGI [1] of 20.9 µM and a GI50 [2] of 0.147 µM. For the same molecule, the TGI [2] was 1.67 µM, the GI50 [10] was 0.831 µM and the TGI [10] was 24.6 µM. The GI50 [3] was 0.629 µM, the TGI [3] was 11.6 µM and the GI50 [4] was 2.44 µM. The TGI [4] was 17.1 µM, the GI50 [5] was 0.0662 µM and the TGI [5] was 2.76 µM. For the same molecule, the GI50 [6] was 0.0379 µM, the TGI [6] was 16.1 µM and the GI50 [7] was 12.9 µM. The TGI [7] was 31.1 µM, the GI50 [8] was 3.77 µM and the TGI [8] was 8.85 µM. It also gave a GI50 [9] of 1.27 µM and a TGI [9] of 7.12 µM.
Molecule `c1ccc2[nH]c(SSc3nc4ncncc4[nH]3)nc2c1` has a GI50 [1] of 4.13 µM, a TGI [1] greater than 100 µM and a GI50 [2] of 32.1 µM. It also gave a TGI [2] greater than 100 µM, a GI50 [10] of 5.37 µM and a TGI [10] greater than 100 µM. For the same molecule, the GI50 [3] was 0.989 µM, the TGI [3] was greater than 100 µM and the GI50 [4] was 3.85 µM. It also gave a TGI [4] greater than 100 µM, a GI50 [5] of 0.551 µM and a TGI [5] greater than 100 µM. The GI50 [6] was 0.212 µM, the TGI [6] was 3.77 µM and the GI50 [7] was 0.375 µM. For the same molecule, the TGI [7] was greater than 90.8 µM, the GI50 [8] was 4.48 µM and the TGI [8] was greater than 100 µM. It also gave a GI50 [9] of 0.347 µM and a TGI [9] of 82.1 µM.
`Clc1ccc(-n2nnc(C3=NCCCN3)c2-c2ccccc2)cc1` gave a TGI [1] greater than 100 µM, a TGI [2] greater than 100 µM and a TGI [3] greater than 100 µM. It also gave a TGI [4] greater than 100 µM, a TGI [5] greater than 100 µM and a TGI [6] greater than 100 µM. It also gave a TGI [7] greater than 100 µM, a TGI [8] greater than 100 µM and a TGI [9] greater than 100 µM.
Work on `CC(C)(C)C(=O)Nc1ccccc1I(=O)=O` yielded a GI50 [1] greater than 100 µM, a TGI [1] greater than 100 µM and a GI50 [2] greater than 100 µM. For the same molecule, the TGI [2] was greater than 100 µM, the GI50 [10] was greater than 100 µM and the TGI [10] was greater than 100 µM. For the same molecule, the GI50 [3] was greater than 100 µM, the TGI [3] was greater than 100 µM and the GI50 [4] was greater than 100 µM. It also gave a TGI [4] greater than 100 µM, a GI50 [5] of 26 µM and a TGI [5] greater than 100 µM. The GI50 [6] was greater than 100 µM, the TGI [6] was greater than 100 µM and the GI50 [7] was greater than 100 µM. For the same molecule, the TGI [7] was greater than 100 µM, the GI50 [8] was greater than 100 µM and the TGI [8] was greater than 100 µM.
With `COc1ccc2c(c1)nc(N)c1c3cc(OC)c(OC)cc3cn21` the TGI [1] was 17.5 µM, the TGI [10] was 16 µM and the GI50 [3] was 0.0697 µM. The TGI [3] was 1.69 µM, the GI50 [4] was 0.014 µM and the TGI [4] was 12.7 µM. It also gave a GI50 [5] of less than 0.01 µM, a TGI [5] of 5.04 µM and a TGI [6] of 19.8 µM. For the same molecule, the GI50 [7] was 5.09 µM, the TGI [7] was 23.9 µM and the GI50 [8] was 0.0606 µM. For the same molecule, the TGI [8] was 11 µM.
With `CC(=O)Nc1nc(SCc2ccccc2)c2ncn(C(C)=O)c2n1` the GI50 [1] was greater than 100 µM, the TGI [1] was greater than 100 µM and the GI50 [2] was 30.9 µM. The TGI [2] was greater than 100 µM, the GI50 [10] was 72.2 µM and the TGI [10] was greater than 100 µM. The GI50 [3] was 97.7 µM, the TGI [3] was greater than 100 µM and the GI50 [4] was greater than 100 µM. The TGI [4] was greater than 100 µM, the GI50 [5] was greater than 100 µM and the TGI [5] was greater than 100 µM. For the same molecule, the GI50 [6] was 28 µM, the TGI [6] was greater than 100 µM and the GI50 [8] was greater than 100 µM. The TGI [8] was greater than 100 µM, the GI50 [9] was 88.6 µM and the TGI [9] was greater than 100 µM.
Work on `C[C@@H]1O[C@@H](O[C@@H]2[C@@H](O)[C@H](OCCc3ccc(O)c(O)c3)O[C@H](COC(=O)/C=C/c3ccc(O)c(O)c3)[C@H]2O)[C@H](O)[C@H](O)[C@H]1O` yielded a GI50 [10] of 0.524 µM, a TGI [10] greater than 100 µM and a GI50 [3] greater than 100 µM. The TGI [3] was greater than 100 µM, the GI50 [4] was greater than 100 µM and the TGI [4] was greater than 100 µM. For the same molecule, the GI50 [5] was 41.3 µM, the TGI [5] was greater than 100 µM and the GI50 [6] was 98.3 µM. It also gave a TGI [6] greater than 100 µM, a GI50 [8] greater than 100 µM and a TGI [8] greater than 100 µM. For the same molecule, the GI50 [9] was greater than 100 µM and the TGI [9] was greater than 100 µM.
`C=C1C[C@@H]2C/C=C/C(=O)C/C(C)=C\C=C\C(=O)O[C@H](C=O)C/C(C)=C/[C@H](C1)O2` was tested, and the GI50 [1] was 1.39 µM, the TGI [1] was 19.6 µM and the GI50 [10] was 0.354 µM. For the same molecule, the TGI [10] was 21.4 µM, the GI50 [3] was 0.328 µM and the TGI [3] was 1.64 µM. It also gave a GI50 [4] of 1.17 µM, a TGI [4] of 12.2 µM and a GI50 [5] of 1.18 µM. It also gave a TGI [5] of 6.77 µM, a GI50 [6] of 4.71 µM and a TGI [6] of 26 µM. The GI50 [7] was 0.367 µM, the TGI [7] was 2.34 µM and the GI50 [8] was 3.07 µM. The TGI [8] was 16.7 µM, the GI50 [9] was 0.281 µM and the TGI [9] was 0.738 µM.
In the case of `c1nc2cscc2c2cscc12`, the TGI [1] is reported as greater than 100 µM, the TGI [2] is reported as greater than 100 µM and the TGI [3] is reported as greater than 100 µM. It also gave a TGI [4] greater than 100 µM, a TGI [5] greater than 100 µM and a TGI [6] greater than 100 µM. The TGI [7] was greater than 100 µM, the TGI [8] was greater than 100 µM and the TGI [9] was greater than 100 µM.
Work on `O=C(/C=C/C=C/c1ccccc1)CCc1ccccc1` yielded a TGI [1] greater than 100 µM, a TGI [2] greater than 100 µM and a TGI [10] greater than 100 µM. It also gave a TGI [3] greater than 100 µM, a TGI [4] greater than 100 µM and a TGI [5] of 63.7 µM. For the same molecule, the TGI [6] was greater than 100 µM, the TGI [7] was greater than 100 µM and the TGI [9] was greater than 100 µM.
For `S=c1[nH]c(=S)c2sc(=S)n(-c3ccccc3)c2[nH]1`, the TGI [1] was greater than 100 µM, the TGI [2] was greater than 100 µM and the TGI [3] was greater than 100 µM. The TGI [4] was greater than 100 µM, the TGI [5] was greater than 100 µM and the TGI [6] was greater than 100 µM. It also gave a TGI [7] greater than 100 µM, a TGI [8] greater than 100 µM and a TGI [9] greater than 100 µM.
In the case of `COc1ccc(/C=C\c2cc(OC)c(OC)c(OC)c2)cc1OC(=O)C(N)CCC(=O)O` (stereo not given), the GI50 [2] is reported as 4.67e-05 µM, the GI50 [10] is reported as 0.00125 µM and 0.000357 µM and the GI50 [3] is reported as 0.000814 µM. For the same molecule, the TGI [3] was 0.000166 µM, the GI50 [4] was 0.00156 µM and the TGI [4] was 0.0073 µM. The GI50 [5] was 0.000532 µM, the GI50 [7] was 0.00298 µM and 0.000791 µM and the TGI [7] was 0.0086 µM. For the same molecule, the GI50 [8] was 0.00112 µM and the GI50 [9] was 0.000565 µM.

From PubChem BioAssay (NCI)
